Patent US11541057B2, “Thienopyrimidinone NMDA receptor modulators and uses thereof” (Cadent Therapeutics, Inc., priority 2015, dated 2023)

Target: T1, NMDA receptor GRIN1/GRIN2B (NR2B) expressed in HEK293 cells (Homo sapiens, UniProt Q13224)
T1 construct: host or cells: HEK293
Assay: Reversal of Ro 25-6981-mediated suppression of the Ca2+ response (fluo-8 fluorescence, FDSS) in HEK293 cells expressing GRIN1 and GRIN2B
Type: cell-based
Settings: % reversal=100*(R−Rneg)/(Rpos−Rneg) of Ro 25-6981 suppression of co-agonist (glutamate/glycine) Ca2+ response, 10 min pre-incubation, compound concentration not given
In short: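 HEK293 with stable GRIN1 and tetracycline-induced GRIN2B, loaded with fluo-8 and preincubated 10 min with compound plus Ro 25-6981 and 5,7-dichlorokynurenic acid. Ca2+ response recorded 2 min after glutamate/glycine/CaCl2 co-agonist addition. % reversal = 100*(R−Rneg)/(Rpos−Rneg) from end fluorescence ratios.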

T1 sequence (Q13224 27-1484, other chains not shown): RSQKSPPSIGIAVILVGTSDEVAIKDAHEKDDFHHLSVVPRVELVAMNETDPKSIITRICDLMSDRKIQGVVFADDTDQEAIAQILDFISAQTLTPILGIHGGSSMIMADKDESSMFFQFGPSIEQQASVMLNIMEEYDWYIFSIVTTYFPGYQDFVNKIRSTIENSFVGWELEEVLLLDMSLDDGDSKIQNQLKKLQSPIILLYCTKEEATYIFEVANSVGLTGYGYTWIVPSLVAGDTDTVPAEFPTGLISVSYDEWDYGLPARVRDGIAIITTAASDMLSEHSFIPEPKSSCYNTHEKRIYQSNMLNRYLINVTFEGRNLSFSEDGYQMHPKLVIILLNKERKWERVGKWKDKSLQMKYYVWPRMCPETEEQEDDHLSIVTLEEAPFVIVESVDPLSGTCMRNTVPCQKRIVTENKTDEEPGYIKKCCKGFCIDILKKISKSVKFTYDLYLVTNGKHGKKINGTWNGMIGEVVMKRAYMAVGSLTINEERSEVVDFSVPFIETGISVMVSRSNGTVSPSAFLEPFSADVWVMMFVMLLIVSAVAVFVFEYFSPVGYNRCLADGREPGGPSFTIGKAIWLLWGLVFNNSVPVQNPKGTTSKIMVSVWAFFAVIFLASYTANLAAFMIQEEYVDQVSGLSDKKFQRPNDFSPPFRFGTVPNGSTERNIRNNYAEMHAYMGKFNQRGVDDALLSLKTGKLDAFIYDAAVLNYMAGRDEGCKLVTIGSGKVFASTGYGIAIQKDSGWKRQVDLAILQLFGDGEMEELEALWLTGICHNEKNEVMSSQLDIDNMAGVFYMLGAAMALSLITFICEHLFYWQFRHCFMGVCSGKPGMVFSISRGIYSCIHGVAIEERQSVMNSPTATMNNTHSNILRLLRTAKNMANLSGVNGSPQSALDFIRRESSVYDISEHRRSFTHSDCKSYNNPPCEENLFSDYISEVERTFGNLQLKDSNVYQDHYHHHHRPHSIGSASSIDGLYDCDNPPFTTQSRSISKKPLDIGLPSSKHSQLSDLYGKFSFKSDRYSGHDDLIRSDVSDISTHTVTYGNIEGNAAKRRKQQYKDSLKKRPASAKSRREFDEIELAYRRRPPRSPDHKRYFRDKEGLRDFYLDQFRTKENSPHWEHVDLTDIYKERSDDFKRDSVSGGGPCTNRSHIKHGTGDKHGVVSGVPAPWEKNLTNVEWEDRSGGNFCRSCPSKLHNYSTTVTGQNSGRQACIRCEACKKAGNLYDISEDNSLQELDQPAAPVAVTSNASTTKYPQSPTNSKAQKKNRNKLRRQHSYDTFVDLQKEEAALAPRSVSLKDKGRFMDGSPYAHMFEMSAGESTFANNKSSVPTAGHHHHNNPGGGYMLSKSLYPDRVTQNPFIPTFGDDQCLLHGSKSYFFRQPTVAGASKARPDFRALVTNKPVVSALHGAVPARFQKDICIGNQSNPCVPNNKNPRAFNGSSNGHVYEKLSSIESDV

In the case of O=C(Cn1cnc2scc(-c3cnc(F)c(Cl)c3)c2c1=O)N1CC(F)C(F)C1 (stereo not shown) [Example 73, 5-(5-chloro-6-fluoropyridin-3-yl)-3-[2-(3,4-difluoropyrrolidin-1-yl)-2-oxoethyl]-3H,4H-thieno[2,3-d]pyrimidin-4-one], the “Response Recovered (%)” value is reported as 11%.
In the case of O=C(Cn1cnc2scc(-c3ccc(F)c(C(F)(F)F)c3)c2c1=O)N1CCC(F)C1 (stereo not shown) [Example 61], the “Response Recovered (%)” value is reported as 83%.
With O=C(Cn1cnc2scc(-c3ccc(Cl)c(C(F)(F)F)c3)c2c1=O)N1CC[C@H](F)C1 [Example 65, 5-[4-chloro-3-(trifluoromethyl)phenyl]-3-{2-[(3S)-3-fluoropyrrolidin-1-yl]-2-oxoethyl}-3H,4H-thieno[2,3-d]pyrimidin-4-one] the “Response Recovered (%)” value was 87%.
With O=C(Cn1cnc2scc(-c3ccc(Cl)cc3)c2c1=O)NC1CC1 [Example 5, 2-[5-(4-chlorophenyl)-4-oxo-3H,4H-thieno[2,3-d]pyrimidin-3-yl]-N-cyclopropylacetamide] the “Response Recovered (%)” value was 2%.
For O=C(COn1cnc2scc(-c3ccc(Cl)c(C(F)(F)F)c3)c2c1=O)N1CCCC1 [Example 92, 5-(4-chloro-3-(trifluoromethyl)phenyl)-3-(2-oxo-2-(pyrrolidin-1-yl)ethoxy)thieno[2,3-d]pyrimidin-4(3H)-one], the “Response Recovered (%)” value was 37%.
With O=C(Cn1cnc2scc(-c3ccc(Cl)cc3)c2c1=O)N1CCC(F)(F)CC1 [Example 14, 5-(4-chlorophenyl)-3-[2-(4,4-difluoropiperidin-1-yl)-2-oxoethyl]-3H,4H-thieno└2,3-d┘pyrimidin-4-one] the “Response Recovered (%)” value was 2%.
With O=C(Cn1cnc2scc(-c3cnc(Cl)c(C(F)(F)F)c3)c2c1=O)N1CCC(F)C1 (stereo not shown) [Example 70, 5-[6-chloro-5-(trifluoromethyl)pyridin-3-yl]-3-[2-(3-fluoropyrrolidin-1-yl)-2-oxoethyl]-3H,4H-thieno[2,3-d]pyrimidin-4-one] the “Response Recovered (%)” value was 22%.
O=C(Cn1cnc2scc(-c3ccccc3Cl)c2c1=O)N1CCCC1 [Example 52, 5-(2-chlorophenyl)-3-[2-oxo-2-(pyrrolidin-1-yl)ethyl]-3H,4H-thieno[2,3-d]pyrimidin-4-one] was tested, and the “Response Recovered (%)” value was 4%.
With O=C(Nn1cnc2scc(-c3ccc(F)c(Cl)c3)c2c1=O)N1CCCC1 [Example 90] the “Response Recovered (%)” value was 10%.
For O=C(Cn1cnc2scc(-c3ccc(C(F)(F)F)c(Cl)c3)c2c1=O)N1CCC(F)C1 (stereo not shown) [Example 62], the “Response Recovered (%)” value was 62%.
In the case of CC(C(=O)N1CCCC1)n1cnc2scc(-c3ccc(Cl)c(C(F)(F)F)c3)c2c1=O (stereo not shown) [Example 56, 5-[4-chloro-3-(trifluoromethyl)phenyl]-3-[1-oxo-1-(pyrrolidin-1-yl)propan-2-yl]-3H,4H-thieno[2,3-d]pyrimidin-4-one], the “Response Recovered (%)” value is reported as 0%.
O=C(Cn1cnc2scc(-c3ccc(Cl)c(Cl)c3)c2c1=O)N1CCCC1 [Example 37, 5-(3,4-dichlorophenyl)-3-[2-oxo-2-(pyrrolidin-1-yl)ethyl]-3H,4H-thieno[2,3-d]pyrimidin-4-one] was tested, and the “Response Recovered (%)” value was 61%.
O=C(Cn1cnc2scc(-c3ccc(Cl)c(C(F)(F)F)c3)c2c1=O)N1CCC(F)C1 (stereo not shown) [Example 19, 5-[4-chloro-3-(trifluoromethyl)phenyl]-3-[2-(3-fluoropyrrolidin-1-yl)-2-oxoethyl]-3H,4H-thieno[2,3-d]pyrimidin-4-one] was tested, and the “Response Recovered (%)” value was 93%.
In the case of O=C(Cn1cnc2scc(-c3ccc(Cl)c(Cl)c3)c2c1=O)N1CCC(F)C1 (stereo not shown) [Example 60, 5-(3,4-dichlorophenyl)-3-[2-(3-fluoropyrrolidin-1-yl)-2-oxoethyl]-3H,4H-thieno[2,3-d]pyrimidin-4-one], the “Response Recovered (%)” value is reported as 98%.
For CN1CCC(NC(=O)Cn2cnc3scc(-c4ccc(Cl)cc4)c3c2=O)C1 (stereo not shown) [Example 7, 2-[5-(4-chlorophenyl)-4-oxo-3H,4H-thieno[2,3-d]pyrimidin-3-yl]-N-(1-methylpyrrolidin-3-yl)acetamide], the “Response Recovered (%)” value was 3%.
For CN(C)c1ccc(-c2csc3ncn(CC(=O)N4CCCC4)c(=O)c23)cc1 [Example 49, 5-[4-(dimethylamino)phenyl]-3-[2-oxo-2-(pyrrolidin-1-yl)ethyl]-3H,4H-thieno[2,3-d]pyrimidin-4-one], the “Response Recovered (%)” value was 0%.
With O=C(Cn1cnc2scc(-c3ccc(C(F)(F)F)cc3)c2c1=O)N1CCCCC1 [Example 26, 3-[2-oxo-2-(piperidin-1-yl)ethyl]-5-[4-(trifluoromethyl)phenyl]-3H,4H-thieno[2,3-d]pyrimidin-4-one] the “Response Recovered (%)” value was 1%.
In the case of O=C(Cn1cnc2scc(-c3ccc(F)c(Cl)c3)c2c1=O)N1CCCC1 [Example 30, 5-(3-chloro-4-fluorophenyl)-3-[2-oxo-2-(pyrrolidin-1-yl)ethyl]-3H,4H-thieno└2,3-d┘pyrimidin-4-one], the “Response Recovered (%)” value is reported as 41%.
With O=C(Cn1cnc2scc(-c3ccc(Cl)cc3)c2c1=O)N1CCOCC1 [Example 4, 5-(4-chlorophenyl)-3-[2-(morpholin-4-yl)-2-oxoethyl]-3H,4H-thieno└2,3-d┘pyrimidin-4-one] the “Response Recovered (%)” value was 3%.
With O=C(Cn1cnc2scc(-c3ccnc(C(F)(F)F)c3)c2c1=O)N1CCCC1 [Example 46, 3-[2-oxo-2-(pyrrolidin-1-yl)ethyl]-5-[2-(trifluoromethyl)pyridin-4-yl]-3H,4H-thieno[2,3-d]pyrimidin-4-one] the “Response Recovered (%)” value was −1%.
With O=c1c2c(-c3ccc(Cl)c(C(F)(F)F)c3)csc2ncn1/N=C/N1CCCC1 [Example 94, (E)-5-(4-chloro-3-(trifluoromethyl)phenyl)-3-((pyrrolidin-1-ylmethylene)amino)thieno[2,3-d]pyrimidin-4(3H)-one] the “Response Recovered (%)” value was 18%.
In the case of Cc1sc2ncn(CC(=O)N3CCCC3)c(=O)c2c1-c1ccc(Cl)cc1 [Example 79, 5-(4-Chloro-phenyl)-6-methyl-3-(2-oxo-2-pyrrolidin-1-yl-ethyl)-3H-thieno[2,3-d]pyrimidin-4-one], the “Response Recovered (%)” value is reported as 17%.
In the case of COc1ccc(C(F)(F)F)cc1-c1csc2ncn(CC(=O)N3CCCC3)c(=O)c12 [Example 44, 5-[2-methoxy-5-(trifluoromethyl)phenyl]-3-[2-oxo-2-(pyrrolidin-1-yl)ethyl]-3H,4H-thieno[2,3-d]pyrimidin-4-one], the “Response Recovered (%)” value is reported as 4%.
In the case of O=C(Cn1cnc2scc(-c3cccc(C(F)(F)F)c3)c2c1=O)N1CCCC1 [Example 55, 3-[2-oxo-2-(pyrrolidin-1-yl)ethyl]-5-[3-(trifluoromethyl)phenyl]-3H,4H-thieno[2,3-d]pyrimidin-4-one], the “Response Recovered (%)” value is reported as 33%.
With Cc1sc2ncn(CC(=O)N3CCCC3)c(=O)c2c1-c1ccc(F)c(Cl)c1 [Example 83, 5-(3-chloro-4-fluorophenyl)-6-methyl-3-[2-oxo-2-(pyrrolidin-1-yl)ethyl]-3H,4H-thieno[2,3-d]pyrimidin-4-one] the “Response Recovered (%)” value was 45%.
